This passage reports Kd results from ChEMBL document CHEMBL3991601, “The target landscape of clinical kinase drugs” (Science, 2017).

The source made the active and inactive calls.

Broadly, the Kd is a measure of binding affinity in units of concentration.

Experiment [1] concerns the target Serine/threonine-protein kinase SIK2 (Homo sapiens, UniProt Q9H0K1).
Experiment [2] has as its target Mitogen-activated protein kinase 1 (Homo sapiens, UniProt P28482).
Experiment [3] deals with STE20-like serine/threonine-protein kinase (Homo sapiens, UniProt Q9H2G2).
In the next experiment the target is GTP-binding protein 4 (Homo sapiens, UniProt Q9BZE4).
The target of a further experiment is T1, ADP/ATP translocase 2 (Homo sapiens, UniProt P05141).
T1 sequence (P05141 whole entry): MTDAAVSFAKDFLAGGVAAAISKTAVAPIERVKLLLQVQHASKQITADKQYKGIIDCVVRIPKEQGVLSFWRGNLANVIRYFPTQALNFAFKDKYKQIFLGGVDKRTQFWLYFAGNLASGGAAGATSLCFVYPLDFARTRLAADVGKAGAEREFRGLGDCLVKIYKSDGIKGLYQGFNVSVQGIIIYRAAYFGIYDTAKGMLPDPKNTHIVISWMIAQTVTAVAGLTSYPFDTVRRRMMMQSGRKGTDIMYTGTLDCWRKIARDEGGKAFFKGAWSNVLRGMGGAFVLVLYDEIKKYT

In experiment [4] the target is Tyrosine-protein kinase ABL1 (Homo sapiens, UniProt P00519).
Chain of Tyrosine-protein kinase ABL1 (P00519 whole entry, canonical isoform): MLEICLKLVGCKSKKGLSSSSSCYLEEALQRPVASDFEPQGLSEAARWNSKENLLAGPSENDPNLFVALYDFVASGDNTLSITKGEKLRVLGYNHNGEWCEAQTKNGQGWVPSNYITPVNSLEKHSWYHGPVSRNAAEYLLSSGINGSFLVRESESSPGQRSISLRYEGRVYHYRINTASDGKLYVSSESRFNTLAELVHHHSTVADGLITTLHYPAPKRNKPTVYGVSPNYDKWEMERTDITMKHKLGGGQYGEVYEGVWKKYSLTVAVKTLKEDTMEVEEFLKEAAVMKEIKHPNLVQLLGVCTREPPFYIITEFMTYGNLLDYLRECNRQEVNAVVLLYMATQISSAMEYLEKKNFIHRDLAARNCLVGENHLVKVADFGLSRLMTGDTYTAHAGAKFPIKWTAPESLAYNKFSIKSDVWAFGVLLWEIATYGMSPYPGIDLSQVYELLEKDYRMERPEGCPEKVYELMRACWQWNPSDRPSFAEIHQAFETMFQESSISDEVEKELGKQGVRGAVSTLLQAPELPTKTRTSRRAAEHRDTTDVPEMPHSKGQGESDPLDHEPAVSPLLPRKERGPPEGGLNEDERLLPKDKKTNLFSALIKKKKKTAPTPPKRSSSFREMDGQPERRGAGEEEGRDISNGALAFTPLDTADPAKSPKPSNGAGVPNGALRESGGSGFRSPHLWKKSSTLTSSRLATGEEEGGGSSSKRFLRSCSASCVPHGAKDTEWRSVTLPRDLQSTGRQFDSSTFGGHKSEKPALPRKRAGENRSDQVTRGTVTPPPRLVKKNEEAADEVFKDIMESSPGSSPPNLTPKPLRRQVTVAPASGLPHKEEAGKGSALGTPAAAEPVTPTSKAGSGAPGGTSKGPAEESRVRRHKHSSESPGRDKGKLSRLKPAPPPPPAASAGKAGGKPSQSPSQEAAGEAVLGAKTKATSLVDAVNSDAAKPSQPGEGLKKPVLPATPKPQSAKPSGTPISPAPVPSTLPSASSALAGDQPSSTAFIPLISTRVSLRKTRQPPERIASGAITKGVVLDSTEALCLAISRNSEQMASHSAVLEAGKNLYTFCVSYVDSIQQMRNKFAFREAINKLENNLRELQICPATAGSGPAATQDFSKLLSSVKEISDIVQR
Experiment [5] has as its target Casein kinase I isoform gamma-1 (Homo sapiens, UniProt Q9HCP0).
Experiment [6] concerns the target Glycogen synthase kinase-3 alpha (Homo sapiens, UniProt P49840).
The target in experiment [7] is Inosine-5'-monophosphate dehydrogenase 2 (Homo sapiens, UniProt P12268).
The target of experiment [8] is Ribosomal protein S6 kinase beta-1 (Homo sapiens, UniProt P23443).
Chain of Ribosomal protein S6 kinase beta-1 (P23443 whole entry): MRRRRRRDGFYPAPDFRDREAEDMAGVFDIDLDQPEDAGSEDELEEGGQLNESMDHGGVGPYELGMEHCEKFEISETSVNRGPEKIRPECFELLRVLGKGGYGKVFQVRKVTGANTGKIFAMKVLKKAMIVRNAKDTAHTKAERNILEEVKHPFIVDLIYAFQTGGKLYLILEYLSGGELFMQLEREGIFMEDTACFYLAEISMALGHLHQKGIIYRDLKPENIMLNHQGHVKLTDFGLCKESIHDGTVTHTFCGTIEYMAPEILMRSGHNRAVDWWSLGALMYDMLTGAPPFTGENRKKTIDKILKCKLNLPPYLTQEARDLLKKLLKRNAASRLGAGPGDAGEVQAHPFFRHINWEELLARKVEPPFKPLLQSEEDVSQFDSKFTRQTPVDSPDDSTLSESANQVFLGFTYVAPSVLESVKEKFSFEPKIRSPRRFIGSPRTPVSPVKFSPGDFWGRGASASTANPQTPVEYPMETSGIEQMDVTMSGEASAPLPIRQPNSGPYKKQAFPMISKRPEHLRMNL
For experiment [9], the target named is Protein-tyrosine kinase 2-beta (Homo sapiens, UniProt Q14289).
Chain of Protein-tyrosine kinase 2-beta (Q14289 whole entry): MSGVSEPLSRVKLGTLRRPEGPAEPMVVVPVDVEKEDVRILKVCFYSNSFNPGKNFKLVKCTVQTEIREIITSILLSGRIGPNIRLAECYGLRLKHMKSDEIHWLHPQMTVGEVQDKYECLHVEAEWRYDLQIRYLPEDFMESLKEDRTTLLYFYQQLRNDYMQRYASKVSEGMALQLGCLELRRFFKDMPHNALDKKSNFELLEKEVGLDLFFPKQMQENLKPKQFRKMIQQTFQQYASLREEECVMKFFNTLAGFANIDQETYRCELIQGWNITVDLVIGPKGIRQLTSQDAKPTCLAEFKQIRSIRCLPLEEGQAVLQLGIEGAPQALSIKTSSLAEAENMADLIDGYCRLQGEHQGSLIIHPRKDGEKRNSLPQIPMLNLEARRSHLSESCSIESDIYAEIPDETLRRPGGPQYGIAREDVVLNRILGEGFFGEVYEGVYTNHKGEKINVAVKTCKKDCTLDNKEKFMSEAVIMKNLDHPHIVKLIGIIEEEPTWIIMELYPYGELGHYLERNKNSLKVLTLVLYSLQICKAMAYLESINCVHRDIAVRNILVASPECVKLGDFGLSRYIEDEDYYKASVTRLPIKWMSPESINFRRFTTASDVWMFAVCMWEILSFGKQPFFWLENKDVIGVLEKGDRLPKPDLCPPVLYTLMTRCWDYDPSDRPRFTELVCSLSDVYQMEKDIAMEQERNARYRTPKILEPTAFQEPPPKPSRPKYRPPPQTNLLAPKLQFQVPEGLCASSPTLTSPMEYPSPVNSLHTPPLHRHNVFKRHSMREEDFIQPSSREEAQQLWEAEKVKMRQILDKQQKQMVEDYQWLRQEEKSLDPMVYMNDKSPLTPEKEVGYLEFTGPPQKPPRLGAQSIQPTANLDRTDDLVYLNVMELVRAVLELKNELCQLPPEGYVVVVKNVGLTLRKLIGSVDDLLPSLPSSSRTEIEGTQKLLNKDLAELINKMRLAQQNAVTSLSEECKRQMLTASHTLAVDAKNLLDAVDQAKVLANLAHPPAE
The target of experiment [10] is Proto-oncogene tyrosine-protein kinase Src (Homo sapiens, UniProt P12931).
The target in experiment [11] is Ras-related protein Rab-6A (Homo sapiens, UniProt P20340).
Experiment [12] addresses T2, Glycogen phosphorylase, brain form (Homo sapiens, UniProt P11216).
T2 sequence (P11216 whole entry): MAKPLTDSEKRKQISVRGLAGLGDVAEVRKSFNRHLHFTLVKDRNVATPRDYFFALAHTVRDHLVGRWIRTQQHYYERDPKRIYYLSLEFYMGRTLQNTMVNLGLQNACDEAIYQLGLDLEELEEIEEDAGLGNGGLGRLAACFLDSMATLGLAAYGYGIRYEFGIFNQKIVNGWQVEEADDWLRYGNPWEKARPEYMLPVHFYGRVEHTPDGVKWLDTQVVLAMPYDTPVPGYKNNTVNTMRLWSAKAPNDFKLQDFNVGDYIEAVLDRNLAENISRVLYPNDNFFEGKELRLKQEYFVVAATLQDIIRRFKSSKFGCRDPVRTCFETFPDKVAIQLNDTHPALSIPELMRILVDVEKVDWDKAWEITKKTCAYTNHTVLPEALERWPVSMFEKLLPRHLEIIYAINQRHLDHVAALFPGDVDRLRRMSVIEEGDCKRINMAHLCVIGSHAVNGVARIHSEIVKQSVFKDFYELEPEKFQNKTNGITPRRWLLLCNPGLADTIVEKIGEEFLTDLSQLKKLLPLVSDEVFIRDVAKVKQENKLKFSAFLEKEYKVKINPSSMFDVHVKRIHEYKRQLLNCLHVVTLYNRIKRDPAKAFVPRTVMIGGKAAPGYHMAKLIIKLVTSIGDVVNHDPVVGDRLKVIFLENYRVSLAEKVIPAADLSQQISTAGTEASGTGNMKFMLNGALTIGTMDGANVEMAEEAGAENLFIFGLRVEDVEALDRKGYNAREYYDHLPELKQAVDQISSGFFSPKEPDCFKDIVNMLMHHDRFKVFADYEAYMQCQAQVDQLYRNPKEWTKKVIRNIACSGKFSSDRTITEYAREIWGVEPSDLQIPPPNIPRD

In experiment [13] the target is T3, Delta(24)-sterol reductase (Homo sapiens, UniProt Q15392).
T3 sequence (Q15392 whole entry): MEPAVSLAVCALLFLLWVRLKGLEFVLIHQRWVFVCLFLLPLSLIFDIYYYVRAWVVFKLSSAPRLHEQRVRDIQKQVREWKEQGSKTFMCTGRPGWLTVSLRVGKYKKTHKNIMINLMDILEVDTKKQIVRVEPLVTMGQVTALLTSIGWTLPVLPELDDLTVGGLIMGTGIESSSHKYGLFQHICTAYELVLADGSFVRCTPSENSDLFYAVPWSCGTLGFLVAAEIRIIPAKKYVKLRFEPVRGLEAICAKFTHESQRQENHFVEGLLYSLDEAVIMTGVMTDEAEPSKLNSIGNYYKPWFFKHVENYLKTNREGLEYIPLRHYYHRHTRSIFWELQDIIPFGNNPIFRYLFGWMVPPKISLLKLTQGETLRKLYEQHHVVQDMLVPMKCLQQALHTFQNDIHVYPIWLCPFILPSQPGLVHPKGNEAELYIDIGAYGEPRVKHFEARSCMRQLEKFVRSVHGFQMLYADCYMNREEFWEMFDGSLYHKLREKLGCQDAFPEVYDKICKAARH
Also: in the data inactive means no Kd found up to 30 µM.

Chain of Mitogen-activated protein kinase 1 (P28482 whole entry): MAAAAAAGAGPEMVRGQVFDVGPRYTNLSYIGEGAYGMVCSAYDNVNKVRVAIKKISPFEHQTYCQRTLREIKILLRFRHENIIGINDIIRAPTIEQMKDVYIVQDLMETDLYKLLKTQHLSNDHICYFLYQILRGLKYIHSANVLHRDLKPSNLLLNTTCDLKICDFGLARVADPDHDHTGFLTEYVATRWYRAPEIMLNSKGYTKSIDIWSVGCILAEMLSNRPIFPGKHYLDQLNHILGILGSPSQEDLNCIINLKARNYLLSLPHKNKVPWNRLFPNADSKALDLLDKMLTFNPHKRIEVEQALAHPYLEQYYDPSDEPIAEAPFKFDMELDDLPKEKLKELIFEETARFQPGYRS
Chain of Serine/threonine-protein kinase SIK2 (Q9H0K1 whole entry): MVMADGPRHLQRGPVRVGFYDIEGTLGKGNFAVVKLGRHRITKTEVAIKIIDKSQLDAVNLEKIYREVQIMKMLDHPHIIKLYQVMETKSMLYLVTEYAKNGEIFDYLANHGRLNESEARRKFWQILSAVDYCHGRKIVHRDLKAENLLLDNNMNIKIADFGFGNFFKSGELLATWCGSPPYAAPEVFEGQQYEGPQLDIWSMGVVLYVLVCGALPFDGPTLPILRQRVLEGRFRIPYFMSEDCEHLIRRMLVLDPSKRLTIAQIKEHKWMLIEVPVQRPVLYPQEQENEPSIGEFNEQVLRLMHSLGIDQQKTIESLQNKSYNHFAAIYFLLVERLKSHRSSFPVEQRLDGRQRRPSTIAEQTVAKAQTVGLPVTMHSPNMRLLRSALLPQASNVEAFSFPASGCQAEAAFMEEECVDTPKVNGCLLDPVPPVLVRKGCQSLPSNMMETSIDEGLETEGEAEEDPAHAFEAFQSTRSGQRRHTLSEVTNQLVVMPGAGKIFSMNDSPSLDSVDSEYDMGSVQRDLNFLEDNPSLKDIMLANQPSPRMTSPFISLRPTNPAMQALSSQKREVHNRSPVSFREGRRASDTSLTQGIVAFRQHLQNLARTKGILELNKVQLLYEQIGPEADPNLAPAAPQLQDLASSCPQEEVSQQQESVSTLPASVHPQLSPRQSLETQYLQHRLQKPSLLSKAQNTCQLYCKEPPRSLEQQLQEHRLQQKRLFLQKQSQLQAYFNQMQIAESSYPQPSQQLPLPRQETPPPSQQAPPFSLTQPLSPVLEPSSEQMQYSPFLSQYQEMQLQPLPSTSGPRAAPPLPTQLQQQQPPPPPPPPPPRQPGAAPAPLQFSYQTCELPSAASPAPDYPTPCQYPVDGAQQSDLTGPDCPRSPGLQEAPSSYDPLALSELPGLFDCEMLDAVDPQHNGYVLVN
Chain of Glycogen synthase kinase-3 alpha (P49840 whole entry): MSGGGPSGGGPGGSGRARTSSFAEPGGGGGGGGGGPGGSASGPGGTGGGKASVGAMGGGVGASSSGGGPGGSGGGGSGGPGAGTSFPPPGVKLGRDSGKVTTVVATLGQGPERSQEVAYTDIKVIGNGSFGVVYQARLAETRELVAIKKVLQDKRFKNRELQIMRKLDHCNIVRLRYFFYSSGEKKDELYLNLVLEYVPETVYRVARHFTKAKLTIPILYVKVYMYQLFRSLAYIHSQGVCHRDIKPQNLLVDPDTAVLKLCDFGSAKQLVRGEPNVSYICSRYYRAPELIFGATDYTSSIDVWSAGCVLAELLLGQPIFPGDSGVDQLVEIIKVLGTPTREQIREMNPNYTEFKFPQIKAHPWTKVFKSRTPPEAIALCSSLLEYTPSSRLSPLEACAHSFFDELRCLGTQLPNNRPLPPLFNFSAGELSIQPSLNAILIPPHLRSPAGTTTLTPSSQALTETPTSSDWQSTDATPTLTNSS
Chain of Casein kinase I isoform gamma-1 (Q9HCP0 whole entry, canonical isoform): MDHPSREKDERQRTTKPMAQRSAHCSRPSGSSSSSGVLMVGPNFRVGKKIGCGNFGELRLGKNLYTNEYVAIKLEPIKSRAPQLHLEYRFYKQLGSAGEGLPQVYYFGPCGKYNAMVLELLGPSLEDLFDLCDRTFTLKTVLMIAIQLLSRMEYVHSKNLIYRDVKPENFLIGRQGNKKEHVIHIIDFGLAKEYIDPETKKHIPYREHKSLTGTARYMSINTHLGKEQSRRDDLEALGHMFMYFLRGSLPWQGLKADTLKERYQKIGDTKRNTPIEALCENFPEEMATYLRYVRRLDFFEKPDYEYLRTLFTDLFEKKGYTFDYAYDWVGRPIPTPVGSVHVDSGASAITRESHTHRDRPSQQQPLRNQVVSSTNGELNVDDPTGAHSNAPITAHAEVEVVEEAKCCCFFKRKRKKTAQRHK

Regarding `CCc1cc2c(cc1N1CCC(N3CCOCC3)CC1)C(C)(C)c1[nH]c3cc(C#N)ccc3c1C2=O` [ALECTINIB], the Kd (in experiment [1]; in experiment [2]; in experiment [3]; on GTP-binding protein 4; at ADP/ATP translocase 2; in [4]) was > 30 µM (inactive) throughout. For the same molecule, the Kd in [5], in experiment [6], in experiment [7], in experiment [8], in [9] and in experiment [10] was > 30 µM (inactive) throughout. Besides, the Kd in experiment [11], in experiment [12] and in [13] was > 30 µM (inactive) each time.
With `COc1cc(Nc2ncc(F)c(Nc3ccc4c(n3)N(COP(=O)(O)O)C(=O)C(C)(C)O4)n2)cc(OC)c1OC` [FOSTAMATINIB], the Kd (in [1]; in [2]; in experiment [3]; at GTP-binding protein 4; on ADP/ATP translocase 2; in experiment [4]) was > 30 µM (inactive) in each case. The Kd in experiment [5], in experiment [6], in experiment [7], in experiment [8], in experiment [9] and in experiment [10] was > 30 µM (inactive) in each case. Besides, the Kd in experiment [11], in experiment [12] and in experiment [13] was > 30 µM (inactive) each time.
As to `COc1cccc2cc(-c3nc([C@H]4CC[C@H](C(=O)O)CC4)n4ncnc(N)c34)[nH]c12` [OSI-027], the Kd (in experiment [1]; in experiment [2]; in [3]; at GTP-binding protein 4; at ADP/ATP translocase 2; in experiment [4]) was > 30 µM (inactive) in each case. Also, the Kd in experiment [5], in experiment [6], in experiment [7], in experiment [8], in experiment [9] and in experiment [10] was > 30 µM (inactive) in each case. Besides, the Kd in [11], in [12] and in experiment [13] was > 30 µM (inactive) in each case.
Take `COc1ccc2c(OCc3nnc4ccc(-c5ccccc5)nn34)ccnc2c1` [AMG-208]: the Kd (in [1]; in [2]; in experiment [3]; on GTP-binding protein 4; on ADP/ATP translocase 2; in experiment [4]) was > 30 µM (inactive) throughout. For the same molecule, the Kd in experiment [5], in experiment [6], in experiment [7], in experiment [8], in experiment [9] and in [10] was > 30 µM (inactive) in each case. The Kd in [11], in [12] and in experiment [13] was > 30 µM (inactive) throughout.
Take `COc1cc2ncnc(Nc3ccc(F)c(Cl)c3)c2cc1NC(=O)/C=C/CN1CCCCC1` [DACOMITINIB ANHYDROUS]: the Kd (in experiment [1]; in experiment [2]; in experiment [3]; at GTP-binding protein 4; on ADP/ATP translocase 2; in experiment [4]) was > 30 µM (inactive) throughout. The Kd in experiment [5], in [6], in [7], in [8], in experiment [9] and in experiment [10] was > 30 µM (inactive) each time. In addition, the Kd in [11], in experiment [12] and in experiment [13] was > 30 µM (inactive) throughout.
For the molecule `CC[C@@](C)(Nc1ccnc(-c2c[nH]c3ncccc23)n1)C(=O)NCC(F)(F)F` [DECERNOTINIB], the Kd is > 30 µM (inactive) in [1]; > 30 µM (inactive) in experiment [2]; 0.058 µM (active) in experiment [3]; > 30 µM (inactive) on GTP-binding protein 4; > 30 µM (inactive) at ADP/ATP translocase 2; 0.842 µM in experiment [4]. For the same molecule, the Kd in [5], in [6], in experiment [7], in experiment [8], in experiment [9] and in [10] was > 30 µM (inactive) each time. Moreover, the Kd in experiment [11], in experiment [12] and in [13] was > 30 µM (inactive) in each case.
For `O=C(NOC[C@H](O)CO)c1ccc(F)c(F)c1Nc1ccc(I)cc1F` [MIRDAMETINIB], the Kd (in experiment [1]; in experiment [2]; in [3]; on GTP-binding protein 4; on ADP/ATP translocase 2; in [4]) was > 30 µM (inactive) in each case. Besides, the Kd in experiment [5], in experiment [6], in experiment [7], in experiment [8], in experiment [9] and in [10] was > 30 µM (inactive) in each case. Moreover, the Kd in experiment [11], in experiment [12] and in experiment [13] was > 30 µM (inactive) each time.
As to `COc1cc2nccc(Oc3ccc(NC(=O)C4(C(=O)Nc5ccc(F)cc5)CC4)cc3)c2cc1OC` [CABOZANTINIB], the Kd is > 30 µM (inactive) in experiment [1]; > 30 µM (inactive) in [2]; > 30 µM (inactive) in experiment [3]; > 30 µM (inactive) at GTP-binding protein 4; > 30 µM (inactive) on ADP/ATP translocase 2; 1.1 µM (active) in experiment [4]. Further, the Kd in [5], in [6], in [7], in experiment [8], in experiment [9] and in experiment [10] was > 30 µM (inactive) each time. In addition, the Kd in [11], in experiment [12] and in [13] was > 30 µM (inactive) in each case.
